Reference: patent US7270824B2, “Citrullinylarginine dipeptide analogs and their dermatological uses as care and treatment agents” (Exsymol S.A.M., priority 2002, dated 2007)
Non-standard residues stand in square brackets, D forms with d. Residues, ends and D or L forms follow the SMILES beside them. Cit = NC(=O)NCCC[C@H](N)C(=O)O

Assays:
[1] = tested on: cultured fibroblasts; test: Test 1: ATP dosage, energetic metabolism of cultured fibroblasts; format: cell-based; conditions: 1% active ingredient; fibroblasts 10^5 cells/ml, 2% fetal calf serum; control 26.7 +/- 5.2
Protocol: Test 1: influence of analogs of the citrullinylarginine natural dipeptide on the energetic metabolism of cultured fibroblasts through a triphosphate adenosine (ATP) dosage. Comparison with the purified natural dipeptide.
The fibroblasts cells are cultivated and seeded at a rate of 10^5 cells/ml in the presence of a growth factor-deprived medium (2% fetal calf serum).
On each cell suspension, the ATP quantity is measured by photometry, by establishing the decrease of absorbance at 340 nm according to following specific equations: • ATP+3-phosphoglycérate---->ADP+1,3-diphosphoglycérate • 1,3-diphosphoglycérate+NADH---->glycéraldéhyde-3-P+NAD+P

[2] = tested on: human fibroblast cell line; test: Test 2: cell proliferation (cytostimulation), neutral red colorimetric test; format: cell-based; conditions: human fibroblasts, 2% fetal calf serum, OD 540 nm
Protocol: Test 2: evidence of the cytostimulating properties of the citrullinylarginine natural dipeptide analogs.
The test was performed on a human fibroblast cell line maintained in a culture medium filed with 2% fetal calf serum.
The assessment of the cell proliferation is carried out through a neutral red colorimetric test (Borenfreund E. and al. (1984), Toxicol. Lett., vol.24, pp.119). Cell growth variation is then obtained by measuring optical density (OD) at 540 nm, following the specific equation: […]

## N=C(N)NCCC[C@H](NC(=O)[C@@H](N)CCCNC(N)=O)C(=O)O [purified Cit-Arg, citrullinylarginine] (H-[Cit]-Arg-OH)
[1]
  ATP quantity: 88.62 +/− 8 nM/mg proteins
[2]; 0.016% active
  % stimulation: 2%
[2]; 0.031% active
  % stimulation: 25%
[2]; 0.063% active
  % stimulation: 30%
[2]; 0.125% active
  % stimulation: 32.5%
[2]; 0.5% active
  % stimulation: 36%

## CC(=O)N[C@@H](CCCNC(N)=O)C(=O)N[C@@H](CCCNC(=N)N)C(=O)O [NAc-Cit-Arg, N-acetyl-L-citrullinyl-L-arginine] (Ac-[Cit]-Arg-OH)
[1]
  ATP quantity: 90.7 +/− 6.5 nM/mg proteins
[2]; 0.016% active
  % stimulation: 5%
[2]; 0.031% active
  % stimulation: 26%
[2]; 0.063% active
  % stimulation: 34%
[2]; 0.125% active
  % stimulation: 40%
[2]; 0.5% active
  % stimulation: 45%
